Results taken from US4851521A, “Esters of hyaluronic acid” (priority 1985, dated 1989).

benzylester of hyaluronic acid (HY) [HYAFF11]
solubility in DMSO: 200 mg/mL
